Experimental data taken from paper PMC11312813, “An Optimized Peptide Antagonist of CXCR4 Limits Survival of BCR–ABL1-Transformed Cells in Philadelphia-Chromosome-Positive B-Cell Acute Lymphoblastic Leukemia” (International Journal of Molecular Sciences, 2024).
Counter-ions that a name gives are not always drawn.

Tests used:
[1] = system: pro/anti-apoptotic genes (Jun, Bax, Bim, Bcl2, Bcl-xl, FasL); assay: Real-time gene expression analysis (Taqman) in BCR–ABL1 cells; type: cell-based, mouse; conditions: 10 µM, n = 3
Procedure: BCR–ABL1 cells were plated at 1 × 10^6 cells/well of a 12-well plate in 1 mL of complete media and treated with DMSO or various inhibitors. After specific time points (24 and 48 h), RNA was isolated from cells using a ReliaPrep Cell RNA miniprep kit (#Z6011, Promega). Fifty nanograms of total RNA was reverse-transcribed using a high-capacity RNA to cDNA kit (#4387406, Thermo Fisher), and gene expression was measured via Taqman assay using Taqman Gene expression master mix (#4369016, Thermo Fisher) following ghd manufacturer’s protocol. The following Taqman probes were used: Jun (Mm07296811_s1), Bax (Mm00432051_m1), Bim (Mm00437796_m1), Bcl2 (Mm00477631_m1), Bcl-xl (00437783_m1), FasL (Mm00438864_m1), and beta actin (04394036_g1).

CXCR4 [2] = assay: CXCL12-driven calcium flux in 697 cells; type: cell-based; conditions: 1 µM, 10 min pre-treatment, 100 ng/mL human CXCL12; n = 3
Procedure: (§1) Ca^2+ signaling was analyzed as described previously. Briefly, SupB15 and 697 cells were collected at 1 × 10^6 cells/treatment and loaded with calcium-sensitive dye Indo-1 AM (#I1223, Invitrogen) and 0.5 mg/mL of pluronic F-127 (#P3000MP, Invitrogen) in their respective media supplemented with 1% FBS at 37 °C for 45 min. Cells were then washed and treated with the inhibitors for 10 min at 37 °C. Baseline signal for calcium was measured for 30 s via flow cytometry, followed by stimulation with 100 ng/mL human CXCL12. The area under the curve (AUC) of each calcium flux plot was determined using FlowJo. The AUC of the water control (solvent for CXCL12) was subtracted from each treatment to obtain the correct estimation of the calcium signal upon CXCL12 stimulation.

[3] = system: BCR–ABL1-transformed mouse B cells; assay: Real-time cell growth analysis by IncuCyte (GFP+ cell enrichment); type: cell-based; conditions: over 96 h
Procedure: A flat-bottom 96-well plate was coated with 0.01% poly-L ornithine (#P4957, Sigma-Aldrich, Hamburg, Germany) for 1 h at room temperature (RT). […] The cells were plated in 100 μL complete medium. […] Plate was prewarmed at 37 °C for 30 min prior to placing in the IncuCyte chamber. Scanning was conducted every two hours for total of 4 days.

[4] = system: AKT phosphorylation (PI3K signaling downstream of CXCR4); assay: Western blot, AKT S473 phosphorylation in BCR–ABL1 cells; type: cell-based; conditions: 10 µM, 100 ng/mL mouse CXCL12, 5 min; n = 3
Procedure: BCR–ABL1 cells were collected as 5 × 10^6 cells/500 μL complete media and treated either with DMSO or different inhibitors in the absence and presence of 100 ng/mL mouse CXCL12 for 5, 15, and 30 min at 37 °C. Cells were then immediately transferred onto ice to stop the reaction and washed with ice-cold PBS. Cell extract was prepared by resuspending the cell pellet in 100 μL of radio-immunoprecipitation assay (RIPA) buffer supplemented with 1X protease inhibitor cocktail (#78429, Thermo Fisher), 1 mM sodium orthovanadate (Sigma-Aldrich), and 10 mM beta-glycerophosphate (Sigma-Aldrich). For each treatment, 15 μL of cell extract was mixed with 5 μL of 4X Laemmli buffer (reducing), boiled at 95 °C for 10 min, and run on 10% SDS-PAGE. Gels were wet-transferred to PVDF membranes (Millipore, Burlington, MA, USA) and stained with 0.1% ponceau-S solution to check for efficient blotting. The membranes were blocked with 3% BSA solution and incubated with primary antibodies at 4 °C overnight. The next day, primary antibodies were washed, and membranes were probed with horseradish peroxidase (HRP)-conjugated secondary antibodies at RT for 2 h. After washing, the blots were developed using Immobilon ECL Ultra Western HRP Substrate (#WBULS0500, Millipore), and images were acquired with a Fusion SL gel imaging system (Vilber Lourmat, Eberhardzell, Germany). […]

CXCR4 [5] = assay: Anti-CXCR4 antibody (clone L276F12) competition assay in BCR–ABL1-transformed mouse B cells; type: binding; conditions: 2 h at 4 °C, FACS, n = 3; for Anti-CXCR4 antibody binding to CXCR4: serially diluted 10 µM to 1 nM
Procedure: (§2) An anti-CXCR4 competition assay was conducted as previously described. […] Afterward, the cells were washed to remove unbound inhibitors and antibody, and measured via FACS for the fluorescence signal of the bound antibody. The fluorescence signal corresponding to only antibody (no inhibitor) was considered to be 100% antibody binding.

[6] = system: BCR–ABL1-transformed mouse B cells; assay: Flow cytometric viability analysis (viability dye); type: cell-based; design: Live gate (viability dye) / Dead gate (viability dye): unit not given here; conditions: for Cell viability of BCR–ABL1 cells: 1–72 h, live cell count normalized to DMSO; for Dead gate (viability dye) / Live gate (viability dye): JM#170 10 µM, representative histogram of n = 3
Procedure: (§3) Cells treated with either solvent control DMSO or different concentrations of inhibitors for different time points were collected and washed with ice-cold PBS. […] After washing, labeled cells were resuspended in 100 μL of PBS and acquired using LSR-Fortessa (BD Bioscience, Heidelberg, Germany). FACS data were analyzed with FlowJo software version 10.0.

CXCR4 [7] = assay: Anti-CXCR4 antibody (clone 12G5) competition assay in SupB15 cells; type: binding, human; conditions: increasing concentrations (1 nM to 10 µM), n = 2–3
Procedure: as §2

caspase 3/7 = assay: Caspase-Glo 3/7 activation assay in BCR–ABL1 cells; type: cell-based, mouse; conditions: 10 µM, 24 and 48 h; n = 3
Procedure: (§4) BCR–ABL1 cells were plated at 0.5 × 10^5 cells/well of a 96-well plate in 100 μL of complete media and treated with DMSO or various inhibitors. At specific time points (24, 48 and 72 h), activation of caspases was measured with a Caspase-Glo® 3/7 Assay (#G8090) and Caspase-Glo® 8 Assay (#G8200, Promega, Madison, WI, USA) following the manufacturer’s instructions.

SupB15 cells = assay: Flow cytometric cell survival analysis, SupB15; type: cell-based, human; conditions: for SupB15 cell survival vs DMSO: 10 µM, 24–96 h, n = 3; for Dead gate (viability dye) / Live gate (viability dye): JM#170 10 µM, representative histogram of n = 3
Procedure: as §3

CXCR4 [8] = conditions: ref [14],[17]; cited from earlier work
caspase 8 = assay: Caspase-Glo 8 activation assay in BCR–ABL1 cells; type: cell-based, mouse; conditions: 10 µM; n = 3
Procedure: as §4

CXCR4 [9] = assay: CXCL12-driven calcium flux in SupB15 cells; type: cell-based; conditions: 1 µM, 10 min pre-treatment, 100 ng/mL human CXCL12; n = 3
Procedure: as §1

For “ILRWSRK * (Pal)-NH2 [JM#170, lipid-conjugated truncated version of EPI-X4, CXCR4 antagonist]”, the Bax gene expression ([1]; 24 h) was “mildly upregulated”, the Bcl2 gene expression ([1]; 24 h) was “significant increase” and the Bcl-xl gene expression ([1]; 24 h) was “not altered at all”. For the same compound, the Bim gene expression ([1]; 24 h) was “significantly elevated”, the Jun gene expression ([1]; 24 h) was “significantly elevated” and the “Bax, Bim and Bcl2 gene expression” value ([1]; 48 h) was “still significantly elevated levels”. The FasL gene expression [1] was “inactivation of FasL”, the “CXCL12-induced calcium flux, 697” value (CXCR4 [2]) was “completely blocked the calcium flux” and the “GFP enrichment (BCR–ABL1 cell growth) vs DMSO” value (from here on “GFP enrichment … vs DMSO”) ([3]; 10 µM, mean ± SEM, n = 4–5) was “significant reduction in GFP enrichment”. The “CXCL12-induced AKT S473 phosphorylation” value [4] was “this elevation was blocked”, the “Concentration effective in inhibiting antibody binding to CXCR4” value (CXCR4 [5]) was ~ 10 nM and the “Anti-CXCR4 antibody binding to CXCR4” value (CXCR4 [5]) was “significantly inhibited the antibody binding”. For the same compound, the “Cell viability of BCR–ABL1 cells” value ([6]; 10 µM, n = 3) was “strong and rapid cell death”, the Cells dying ([6]; 10 µM, within 1 h of treatment, n = 3) was ~ 70% and the “Dead gate (viability dye)” value ([6]; 1 h) was 64.5. For the same compound, the “Live gate (viability dye)” value ([6]; 1 h) was 35.5, the “Dead gate (viability dye)” value ([6]; 24 h) was 85.0 and the “Live gate (viability dye)” value ([6]; 24 h) was 15.0. The “Dead gate (viability dye)” value ([6]; 48 h) was 76.4, the “Live gate (viability dye)” value ([6]; 48 h) was 23.6 and the “Dead gate (viability dye)” value ([6]; 72 h) was 63.6. The “Live gate (viability dye)” value ([6]; 72 h) was 36.4, the “12G5 antibody binding to CXCR4” value (CXCR4 [7]) was “significantly inhibited 12G5 binding” and the “Caspase 3/7 activation vs DMSO” value (caspase 3/7) was “significant increase in caspase 3/7 activation”. The “SupB15 cell survival vs DMSO” value (SupB15 cells) was “significantly reduced SupB15 cell survival”, the “Dead gate (viability dye)” value (SupB15 cells; 24 h) was 19.0 and the “Live gate (viability dye)” value (SupB15 cells; 24 h) was 81.0. The “Dead gate (viability dye)” value (SupB15 cells; 72 h) was 33.3, the “Live gate (viability dye)” value (SupB15 cells; 72 h) was 66.7 and the “Dead gate (viability dye)” value (SupB15 cells; 96 h) was 41.7. For the same compound, the “Live gate (viability dye)” value (SupB15 cells; 96 h) was 58.3, the CXCL12-induced calcium signaling (CXCR4 [8]) was “block CXCL12-induced calcium signaling” and the “Caspase 8 activation vs DMSO” value (caspase 8) was “neither JM#170 nor AMD3100 induced caspase 8”. The “CXCL12-induced calcium flux, SupB15” value (CXCR4 [9]) was “completely blocked the calcium flux”.

In the case of `c1cc(CN2CCCNCCNCCCNCC2)ccc1CN1CCCNCCNCCCNCC1` [AMD3100, AMD3100 octahydrochloride hydrate, reference compound], the Pro/anti-apoptotic gene expression ([1]; 24 and 48 h) was “did not upregulate any gene expression”, the “CXCL12-induced calcium flux, 697” value (CXCR4 [2]) was “completely blocked the calcium flux” and the “GFP enrichment … vs DMSO” value ([3]; 5 µM) was “also detectable”. For the same compound, the “GFP enrichment … vs DMSO” value ([3]; 10 µM, mean ± SEM, n = 4–5) was “only distinct at later time points”, the “CXCL12-induced AKT S473 phosphorylation” value [4] was “this elevation was blocked” and the “Concentration effective in inhibiting antibody binding to CXCR4” value (CXCR4 [5]) was ~ 1 μM. For the same compound, the “Anti-CXCR4 antibody binding to CXCR4” value (CXCR4 [5]) was “significantly inhibited the antibody binding”, the “Cell viability of BCR–ABL1 cells” value ([6]; 10 µM, n = 3) was “did not induce any loss of cell viability” and the “12G5 antibody binding to CXCR4” value (CXCR4 [7]) was “significantly inhibited 12G5 binding”. The “Caspase 3/7 activation vs DMSO” value (caspase 3/7) was “did not induce any caspase activation”, the “SupB15 cell survival vs DMSO” value (SupB15 cells) was “no effect on SupB15 cell survival” and the CXCL12-induced calcium signaling (CXCR4 [8]) was “block the intracellular calcium response”. For the same compound, the “Caspase 8 activation vs DMSO” value (caspase 8) was “neither JM#170 nor AMD3100 induced caspase 8” and the “CXCL12-induced calcium flux, SupB15” value (CXCR4 [9]) was “completely blocked the calcium flux”.
